Laboratory results from patent US4780281A, “Method for assay of peroxidase enzyme or reducing substrate activity” (Wayne State University, priority 1985, dated 1988).

These molecules were tested against T1, Horseradish peroxidase (HRP) (Armoracia rusticana, UniProt P00433) (assay: Reducing substrate specificity assay (HRP-catalysed reduction of PPHP to PPA, HPLC)). Conditions: 60 nM HRP, 200 microM reducing substrate, 100 microM PPHP, 0.1 M potassium citrate pH 5.5, 0.2 mM Tween-20, 25° C., 6 minutes, triplicate.
T1 construct: purchased Sigma Chemical Corporation Type VI
T1 sequence (P00433 31-338 limits assumed): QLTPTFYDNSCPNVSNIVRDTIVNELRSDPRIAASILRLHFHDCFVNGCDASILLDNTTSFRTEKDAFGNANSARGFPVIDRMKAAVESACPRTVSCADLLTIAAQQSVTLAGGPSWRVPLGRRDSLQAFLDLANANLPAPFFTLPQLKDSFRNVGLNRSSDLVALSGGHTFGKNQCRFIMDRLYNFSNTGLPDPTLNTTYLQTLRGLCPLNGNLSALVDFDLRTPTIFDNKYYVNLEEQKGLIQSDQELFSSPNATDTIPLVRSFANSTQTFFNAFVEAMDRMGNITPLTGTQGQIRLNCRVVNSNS
Type: biochemical
Procedure: Incubations were performed in triplicate with a 25° C. shaker bath in 16×150 mm disposable glass test tubes. 60 nM HRP was incubated at 25° C. in 0.1 M potassium citrate buffer, […] containing 0.2 mM Tween 20, with 100 microM PPHP and 200 microM potential reducing substrate. The index value is defined as, Index=concentration PPA/(concentration PPA+concentration PPHP). Most reducing substrates were prepared daily as 8 mM stocks in either water, methanol, or methanol:water (1:1 v/v). DPBF was dissolved in acetone. Uric acid was dissolved in DMSO. Epinephrine required titration with dilute hydrochloric acid prior to dissolution in methanol. Indoleacetic acid, tryptophan, cysteine, and methionine were titrated with dilute potassium hydroxide prior to dissolution in methanol:water (1:1 v/v).
For the data in Table 1 hereinafter, reducing substrates (50 microliters of 8 mM stocks--see Table 1 for preparation) were transferred into 1.9 ml of 0.1 M potassium citrate buffer, pH 5.5, containing 0.2 mM Tween-20 and allowed to thermally equilibrate for 10 minutes. HRP (24 microl of a 5 microM stock) was added to each trial and preincubated for three minutes prior to the addition of PPHP (25 microl of 8 mM stock in methanol). Incubations were stopped at 6 minutes by pouring mixtures onto Baker SPE System columns (3 ml octyldecylsilyl, from J. T. Baker & Co.). The columns were prepared prior to use by passing 3×3 ml aliquots of water through the columns with the Baker SPE vacuum system. At the stop time, an individual trial was poured onto the column and aspirated to near dryness. Each individual trial was set aside until the reminder of the trials were treated in the same manner. After all incubation trials were partitioned onto the SPE columns, each individual incubation tube was washed with 2 ml of 0.2 mM Tween 20 in distilled water and poured onto the corresponding SPE column. This Tween 20/water wash was aspirated to near dryness with vacuum. Analytes were eluted into 12×76 mm disposable glass test tubes with 2×1 ml aliquots of methanol (HPLC grade, Fisher Scientific Co.). The sample collection rack for the Baker 10 SPE System was modified to accommodate these 12 mm diameter tubes. The SPE columns were aspirated dry at this point and discarded. An internal chromatographic standard of p-nitrobenzyl alcohol (25 microl of 8 mM stock solution in methanol) was added to each methanol eluent, mixed by vortexing, and then clarified by filtration through a 0.45 micron nylon Swinney type filter (Rainin Instrument Corp.). The filtered eluents were used directly for chromatographic analysis.
The Initial incubation conditions were 0.1 M potassium citrate buffer, pH 5.5, with 0.2 mM Tween 20, 200 microM reducing substrate, 60 nM HRP and […] PPHP (structure 1).
Quantitation was determined by adding an internal standard (p-nitrobenzyl alcohol: annotated as I.S. on chromatograms) and ratioing peak areas. Chromatograms are 40 microliters injections onto a 5 micron Zorbax octylsilyl reverse-phase column (DuPont Instrument Corp.) with an isocratic elution mobile of 56% v/v methanol in water at 2 ml per min. U.V. monitoring was with a fixed 254 nm detector (Varian 5000, Varian Instrument Corp.). Vertical numbers are associated with peak retention times in minutes (the integrator used was a Vista 402 System, Varian Instruments).
Analyte concentrations were calculated by an internal standard method of calculation. This required individual incubation chromatograms to be compared to a calibration chromatogram generated by chromatographing a 40 microliter sample aliquot of a solution of PPHP as described under calculations.

| Molecule | Index = concentration PPA/(concentration PPA+concentration PPHP) |
| --- | --- |
| Nc1ccccc1 [Aniline, aniline] | 0.97 ± 0.01 |
| O=C1O[C@H]([C@@H](O)CO)C(O)=C1O [Ascorbic Acid, 1-ascorbic acid] | 0.50 ± 0.00 |
| COc1ccc(O)c(C(C)(C)C)c1 [BHA, butylated hydroxyanisole] | 0.56 ± 0.01 |
| Cc1cc(C(C)(C)C)c(O)c(C(C)(C)C)c1 [BHT, butylated hydroxytoluene] | 0.19 ± 0.03 |
| CNC[C@H](O)c1ccc(O)c(O)c1 [Epinephrin, d,1-epinephrine] | 0.39 ± 0.01 |
| N[C@@H](CCC(=O)N[C@@H](CS)C(=O)NCC(=O)O)C(=O)O [Glutathione, reduced glutathione] | 0.07 ± 0.01 |
| Oc1ccc(O)cc1 [Hydroquinone, hydroquinone] | 0.97 ± 0.01 |
| CSCC[C@H](N)C(=O)O [Methionine, d,1-methionine] | 0.05 ± 0.01 |
| NC(=O)C1=CN([C@@H]2O[C@H](COP(=O)(O)OP(=O)(O)OC[C@H]3O[C@@H](n4cnc5c(N)ncnc54)[C@H](O)[C@@H]3O)[C@@H](O)[C@H]2O)C=CC1 [NADH, reduced nicotinamide adenine dinucleotide] | 0.05 ± 0.00 |
| NC(=O)C1=CN([C@@H]2O[C@H](COP(=O)(O)OP(=O)(O)OC[C@H]3O[C@@H](n4cnc5c(N)ncnc54)[C@H](OP(=O)(O)O)[C@@H]3O)[C@@H](O)[C@H]2O)C=CC1 [NADPH, reduced nicotinamide adenine dinucleotide phosphate] | 0.06 ± 0.01 |

Continued, values first:

| Index = concentration PPA/(concentration PPA+concentration PPHP) | Molecule |
| --- | --- |
| 0.06 ± 0.01 | O=C(O)CCCCC1CCSS1 (racemic) [Lipoic Acid, d,1-thiotic acid] |
| 0.06 ± 0.01 | N[C@@H](CS)C(=O)O [Cysteine, 1-cysteine] |
| 0.06 ± 0.01 | c1ccc(-c2oc(-c3ccccc3)c3ccccc23)cc1 [DPBF, 1,3-diphenylisobenzofuran] |
| 0.72 ± 0.02 | CCN(CC)C(=S)S [Diethyldithiocarbamate, diethyldithiocarbamic acid] |
| 0.97 ± 0.01 | COc1ccccc1O [Guaniacol, guaiacol] |
| 0.14 ± 0.01 | O=C(O)Cc1c[nH]c2ccccc12 [Indoleacetic Acid, indole-3-acetic acid] |
| 0.97 ± 0.02 | [I-].[K+] [Iodide, potassium iodide] |
| 0.13 ± 0.04 | N[C@@H](Cc1c[nH]c2ccccc12)C(=O)O [Tryptophan, 1-tryptophan] |
| 0.96 ± 0.00 | O=c1[nH]c(=O)c2[nH]c(=O)[nH]c2[nH]1 [Uric Acid, uric acid] |

Same assay, conditions: 200 microM reducing substrate, 60 nM HRP, pH 5.5

| Molecule | reducing substrate quality for HRP (FIG. 1) |
| --- | --- |
| COc1ccc(O)c(C(C)(C)C)c1 [BHA, butylated hydroxyanisole] | moderate |
| N[C@@H](Cc1c[nH]c2ccccc12)C(=O)O [Tryptophan, 1-tryptophan] | poor |

What follows are molecules tested on Oc1ccccc1 (assay: Steady-state kinetic assay (PPA production, SPE/HPLC)). Conditions: other: 2.5 nM HRP, 100 microM PPHP, pH 5.5, 4 minutes.
Type: biochemical, horseradish
Procedure: The incubations were terminated at 2, 4, and 8 minutes by pouring the incubations onto SPE columns as described in Methods. […] The data points are the average of triplicates. […] All buffers contained 0.2 mM Tween-20. Incubations were stopped at 4 minutes by pouring onto SPE columns as described in Methods. Each data point is the average of triplicates. […] Incubations were stopped at 4 minutes by pouring on SPE columns as described in Methods. PPA concentrations were converted into velocities by dividing by the incubation time and assuming linear steady-state velocities over the first 8 minutes (see FIG. 3). Five replicates of each phenol concentration were assayed. Km and Vmax were determined by linear regression analysis upon the non-averaged data points.
We designed the assays with 4 minute termination times converting either the concentration of PPHP or PPA into velocities.

| Molecule | Km [µM] |
| --- | --- |
| HRP (Armoracia rusticana) (protein, purchased Sigma Chemical Corporation Type VI) QLTPTFYDNSCPNVSNIVRDTIVNELRSDPRIAASILRLHFHDCFVNGCDASILLDNTTSFRTEKDAFGNANSARGFPVIDRMKAAVESACPRTVSCADLLTIAAQQSVTLAGGPSWRVPLGRRDSLQAFLDLANANLPAPFFTLPQLKDSFRNVGLNRSSDLVALSGGHTFGKNQCRFIMDRLYNFSNTGLPDPTLNTTYLQTLRGLCPLNGNLSALVDFDLRTPTIFDNKYYVNLEEQKGLIQSDQELFSSPNATDTIPLVRSFANSTQTFFNAFVEAMDRMGNITPLTGTQGQIRLNCRVVNSNS | 252 |

Each molecule was assayed against T2, Prostaglandin H Synthase (Ovis aries, UniProt P05979) (assay: Reducing substrate efficiency for PPHP reduction, conditions as for Table 1). Conditions: not given.
T2 sequence (P05979 25-600): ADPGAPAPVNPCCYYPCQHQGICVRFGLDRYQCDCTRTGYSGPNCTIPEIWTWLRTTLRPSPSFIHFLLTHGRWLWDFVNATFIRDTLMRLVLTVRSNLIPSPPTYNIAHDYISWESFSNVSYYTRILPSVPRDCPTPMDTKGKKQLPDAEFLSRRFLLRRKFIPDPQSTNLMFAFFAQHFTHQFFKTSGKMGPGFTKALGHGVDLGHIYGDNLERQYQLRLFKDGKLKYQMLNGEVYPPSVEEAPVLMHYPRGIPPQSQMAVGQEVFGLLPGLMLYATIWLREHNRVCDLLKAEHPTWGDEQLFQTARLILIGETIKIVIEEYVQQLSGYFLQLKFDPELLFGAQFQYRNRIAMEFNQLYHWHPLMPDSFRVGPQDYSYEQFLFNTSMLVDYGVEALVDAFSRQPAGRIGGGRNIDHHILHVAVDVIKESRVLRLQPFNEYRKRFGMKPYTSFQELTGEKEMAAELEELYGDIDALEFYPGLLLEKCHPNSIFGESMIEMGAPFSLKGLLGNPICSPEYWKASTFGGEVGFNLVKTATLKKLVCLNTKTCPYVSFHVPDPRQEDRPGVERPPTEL
Type: biochemical

| Molecule | reducing substrate for PPHP reduction by prostaglandin H synthase |
| --- | --- |
| OC1C=Cc2c(cc3ccc4cccc5ccc2c3c45)C1O (centres unmarked) [7,8-dihydroxy-7,8-dihydrobenzo[a]pyrene] | not reducing substrates |
| c1ccc(-c2oc(-c3ccccc3)c3ccccc23)cc1 [DPBF, 1,3-diphenylisobenzofuran] | not reducing substrates |
| c1ccc2c(c1)cc1ccc3cccc4ccc2c1c34 [benzo[a]yrene] | not reducing substrates |

Same assay, conditions: Prostaglandin H synthase, under the conditions for Table 1

| Molecule | Index of Efficiency of Reducing Substrates |
| --- | --- |
| Cc1c(CC(=O)O)c2cc(O)ccc2n1C(=O)c1ccc(Cl)cc1 [5-Hydroxy-indomethacin] | .34 |
| CC(=O)Oc1ccccc1C(=O)O [Aspirin] | .04 |
| O=C(O)Cc1ccccc1Nc1c(Cl)cccc1Cl [Diclofenac] | .50 |
| CNC[C@H](O)c1ccc(O)c(O)c1 [Epinephrin, d,1-epinephrine] | .92 |
| O=C(O)c1ccccc1Nc1cccc(C(F)(F)F)c1 [Flufenamate] | .68 |
| CC(C(=O)O)c1ccc(-c2ccccc2)c(F)c1 (centres unmarked) [Flurbiprofen] | .12 |
| CC(C)Cc1ccc(C(C)C(=O)O)cc1 (centres unmarked) [Ibuprofen] | .12 |
| Cc1cc(NC(=O)C2=C(O)c3ccccc3S(=O)(=O)N2C)no1 [Isoxicam] | .25 |
| COc1ccc2c(c1)c(C(C)C(=O)O)c(C)n2Cc1ccc(SC)cc1 (centres unmarked) [MK-410] | .26 |
| CC(C)(C)c1cc(I)c(O)c(CN)c1 [MK-447] | .72 |
| Cc1ccc(Cl)c(Nc2ccccc2C(=O)O)c1Cl [Meclofenamate] | .35 |
| CSc1ccccc1 [Methylphenyl Sulfide] | .50 |
| CCCCC1C(=O)NN(c2ccccc2)C1=O (centres unmarked) [Monophenylbutazone] | .23 |
| CC1=NN(CCOc2ccc3ccccc3c2)C(=O)C1 [Nafazatrom] | .80 |
| CCCCC1C(=O)N(c2ccccc2)N(c2ccc(O)cc2)C1=O (centres unmarked) [Oxyphenylbutazone] | .71 |
| CCCCC1C(=O)N(c2ccccc2)N(c2ccccc2)C1=O [Phenylbutazone] | .23 |
| O=C(O)c1ccccc1O [Salicylic Acid] | .06 |
| CSc1ccc(/C=C2/C(C)=C(CC(=O)O)c3cc(F)ccc32)cc1 [Sulindac Sulfide] | .96 |

What follows are molecules tested on OOCCC/C=C/c1ccccc1 (assay: Spectrophotometric assay of Chance & Maehly for guaiacol oxidation). Conditions: other: estimated.
Type: biochemical, horseradish
Description: Apparent Km values for reducing substrates and enzymatic turnover numbers are readily determined by the steady-state kinetic assay.

| Molecule | Km [µM] |
| --- | --- |
| HRP (Armoracia rusticana) (protein, purchased Sigma Chemical Corporation Type VI) QLTPTFYDNSCPNVSNIVRDTIVNELRSDPRIAASILRLHFHDCFVNGCDASILLDNTTSFRTEKDAFGNANSARGFPVIDRMKAAVESACPRTVSCADLLTIAAQQSVTLAGGPSWRVPLGRRDSLQAFLDLANANLPAPFFTLPQLKDSFRNVGLNRSSDLVALSGGHTFGKNQCRFIMDRLYNFSNTGLPDPTLNTTYLQTLRGLCPLNGNLSALVDFDLRTPTIFDNKYYVNLEEQKGLIQSDQELFSSPNATDTIPLVRSFANSTQTFFNAFVEAMDRMGNITPLTGTQGQIRLNCRVVNSNS | 18 |
